pIC50, pKd: −log10 of the molar value. Like-named read-outs stand apart in the source and are kept apart here.
Key:
[1] = molecular target: T1, interaction of ICAM-1 with the Leukointegrin CD18/CD11a (LFA-1) (Homo sapiens, UniProt P05107+P20701); experiment: Assay to determine inhibition of LFA-1 binding to ICAM-1 (immunopurified LFA-1 on plate-bound sICAM-1, ELISA readout)
T1 construct: endogenous in cells; sICAM-1: made in house, secreted from transfected CHO DUX cells
Source text: Assay to Determine Inhibition of LFA-1 Binding to ICAM-1 Purpose of Assay: This assay protocol is designed to study the direct antagonism, by a test compound, of the interaction of the CAM, ICAM-1 with the Leukointegrin CD18/CD11a (LFA-1). […] After collection and neutralization of fractions from the TS2/4 column, samples are pooled and precleared with Protein G agarose. […] Wells are washed 3 times with Diluting Buffer. The bound LFA-1 is detected by the addition of a polyclonal antibody directed against a peptide corresponding to the CD18 cytoplasmic tail in a 1:100 dilution with Diluting Buffer and 1% BSA and allowed to incubate for 45 min at 37° C. Wells are washed 3 times with Diluting Buffer and the bound polyclonal antibody is detected by the addition of a 1:4000 dilution of horse radish peroxidase conjugated to goat immunoglobulin directed against rabbit immunoglobulin. […] The lack of the addition of LFA-1 to the binding assay is used as a background control for all samples. A dose-response curve is obtained for all test compounds. Results of these tests are reported as Kd's in μM.

[2] = system: LFA-1 dependent aggregation of JY cells; experiment: JY cell homotypic aggregation assay (PMA-stimulated); type: cell-based, human; details: Homo sapiens
Source text: This aggregation can be enhanced by the addition of phorbol esters. […] Thus, the extent of LFA-1-dependent binding may be determined by assessing the extent of spontaneous or phorbol ester-dependent aggregate formation.
An agent which interferes with LFA-1 -dependent aggregation can be identified through the use of an assay capable of determining whether the agent interferes with either spontaneous, or phorbol ester-dependent aggregation of Epstein-Barr virus transformed cells. It is preferable to employ cells of the JY cell line (Terhost, L; et aL, Proc. Natl. Acad. Sci. USA, 1976, 73, 910) for the homotypic aggregation assay. This assay, capable of measuring LFA-1 dependent aggregation, may be employed to identify agents which act as antagonists to the LFA-1 dependent aggregation. Such agents may act by impairing the ability of either LFA-1 or ICAM-1 to mediate aggregation. Thus, agents may be examined to directly determine if they are antagonists of LFA-1 aggregation.
(§1) Description of Assay Protocol:
JY cells are cultured in RPMI 1640 culture medium supplemented with 10% fetal calf serum and 50 μg/mL gentamycin. The cells are cultured at 37° C. in an atmosphere of 5% CO2 at a relative humidity of 95%. JY cells used in this assay are washed two times with RPMI 1640 medium containing 5 mM HEPES buffer and resuspended to a concentration of 2·10^6 cells/mL. Added to flat-bottomed, 96-well microtiter plates are 50 μL of test compound diluted in complete medium, 50 μL of complete medium with or without purified monoclonal antibodies (negative and positive controls for inhibition, respectively), 50 μL of complete medium containing 200 ng/mL of the phorbol ester phorbol myristate acetate (PMA) and 100 μL of cells at a concentration of 2·10^6 cells/mL in complete medium. This yields a final concentration of […] PMA and 2·10^5 cells/well. Cells are allowed to settle spontaneously, and the degree of aggregation is scored at various time points. […] This procedure has been described by Rothlein, R. R.; et al., J. Exp. Med. 1986, 163, 1132-1149. This paper also reported that antibody to LFA-1 is capable of inhibiting the formation of aggregates.
(§2) Data are reported as the concentration or concentration range (in μM) at which 50% of binding is inhibited.

[3] = system: cell bound form of LFA-1 (CD18, CD11a) with ICAM-1, SKW3 cells; experiment: Inhibition of SKW3 cell binding to ICAM-1 (PMA-stimulated); type: cell-based, human; details: Homo sapiens, read-out: Assay to Detect SKW3 Cells Binding to ICAM IC50
Source text: (§3) Assay to Determine Inhibition of SKW3 cell binding to ICAM-1 vs. Binding to Fibronectin
(§4) This assay is used to test the selective ability of a test compound to antagonize the interaction of a cell bound form of LFA-1 with ICAM-1. The assay uses a human T cell line, SKW3 cells which express CD18, CD11a and other integrins not related to CD18, CD11a and which can be “activated” by phorbol esters. Phorbol esters enhance the affinity of CD18, CD11a for ICAM-1.
(§5) This same lymphocyte line, SKW3, also adheres to fibronectin in the presence of phorbol esters. This adhesion is mediated by membrane proteins independent of the LFA-1/ICAM-1 interaction. The SKW3 cells express another integrin, VLA4, which is the receptor for fibronectin. Therefore, as a preliminary indication of the selectivity of a test compounds to interfere with Leukointegrin/CAM interactions but not other integrin-ligand binding events, a compound can be tested for its ability to antagonize cell bound fibronectin receptor in its interaction with purified fibronectin. Compounds that inhibit this fibronectin adhesion are not specific antagonists of the CD18, CD11a/ICAM-1 binding.
as §1
(§6) Ninety-six well plates are coated with either sICAM-1(40 μg/mL) or fibronectin (100 μg/mL) in Diluting buffer for 1 h at room temperature. Added to the wells are 100 μL of the appropriately diluted test compound or 100 μL of RPMI with 15% fetal bovine serum as a control. SKW3 cells, which express CD18, CD11a and VLA4 (Dustin, M.; et al., J. Exp. Med. 1987, 165, 672-692) are washed and suspended to a concentration of 10^6 cells/mL in RPMI with 15% fetal bovine serum. Immediately before adding the cells to the wells, cells are stimulated with the phorbol ester 12-myristate 13-acetate (PMA) for a final concentration of […]. 100 μL of cells are then added to the wells resulting in a final concentration of […]. The plates are incubated for 2 h at 37° C. Unbound or loosely bound cells are gently washed away with RPMI.
as §2

[4] = system: cell bound fibronectin receptor (VLA4) with fibronectin, SKW3 cells; experiment: Inhibition of SKW3 cell binding to fibronectin (selectivity counter-assay); type: cell-based, human; details: for pIC50: Homo sapiens, SKW3, values marked c: no inhibition observed up to highest dose, read-out: Assay to Detect SKW3 Cells Binding to FIBRONECTIN IC50
Source text: as §3, §4, §5, §1, §6, §2

[5] = values marked e approximated from incomplete dose-response curve
[6] = SKW3, values marked c: no inhibition observed up to highest dose
[7] = values marked c: no inhibition observed up to highest dose
[8] = No inh = no inhibition observed up to highest dose, exact quantification not always possible due to intrinsic toxicity

T1 sequence (P20701 26-1170): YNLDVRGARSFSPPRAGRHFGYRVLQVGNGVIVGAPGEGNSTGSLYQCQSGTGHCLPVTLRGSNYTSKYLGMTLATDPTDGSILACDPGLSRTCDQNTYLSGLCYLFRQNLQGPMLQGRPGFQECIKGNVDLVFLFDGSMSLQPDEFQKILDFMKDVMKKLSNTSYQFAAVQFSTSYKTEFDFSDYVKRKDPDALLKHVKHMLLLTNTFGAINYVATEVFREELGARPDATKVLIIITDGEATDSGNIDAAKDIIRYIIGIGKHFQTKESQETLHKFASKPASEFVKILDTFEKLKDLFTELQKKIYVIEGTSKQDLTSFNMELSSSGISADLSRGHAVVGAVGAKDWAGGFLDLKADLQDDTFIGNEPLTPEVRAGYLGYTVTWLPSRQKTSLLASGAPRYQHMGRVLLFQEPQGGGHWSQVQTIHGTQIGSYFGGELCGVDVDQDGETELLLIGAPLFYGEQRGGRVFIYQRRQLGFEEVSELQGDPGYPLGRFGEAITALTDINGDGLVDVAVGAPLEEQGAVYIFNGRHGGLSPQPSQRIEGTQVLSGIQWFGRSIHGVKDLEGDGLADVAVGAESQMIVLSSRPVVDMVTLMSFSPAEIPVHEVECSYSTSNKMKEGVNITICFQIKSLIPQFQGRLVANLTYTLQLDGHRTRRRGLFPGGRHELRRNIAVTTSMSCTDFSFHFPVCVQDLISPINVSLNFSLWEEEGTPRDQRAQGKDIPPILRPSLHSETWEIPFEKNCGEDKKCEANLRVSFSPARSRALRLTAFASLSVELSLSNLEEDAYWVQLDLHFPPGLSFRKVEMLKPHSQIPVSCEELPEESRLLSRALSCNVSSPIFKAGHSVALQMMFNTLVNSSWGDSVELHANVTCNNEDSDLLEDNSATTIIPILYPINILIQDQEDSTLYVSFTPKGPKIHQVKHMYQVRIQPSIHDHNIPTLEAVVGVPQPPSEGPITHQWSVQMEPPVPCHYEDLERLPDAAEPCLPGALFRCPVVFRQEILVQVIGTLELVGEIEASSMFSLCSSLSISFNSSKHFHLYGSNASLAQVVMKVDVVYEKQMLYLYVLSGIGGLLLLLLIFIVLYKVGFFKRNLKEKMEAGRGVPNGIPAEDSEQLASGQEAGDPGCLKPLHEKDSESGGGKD
T1 sequence (P05107 23-769): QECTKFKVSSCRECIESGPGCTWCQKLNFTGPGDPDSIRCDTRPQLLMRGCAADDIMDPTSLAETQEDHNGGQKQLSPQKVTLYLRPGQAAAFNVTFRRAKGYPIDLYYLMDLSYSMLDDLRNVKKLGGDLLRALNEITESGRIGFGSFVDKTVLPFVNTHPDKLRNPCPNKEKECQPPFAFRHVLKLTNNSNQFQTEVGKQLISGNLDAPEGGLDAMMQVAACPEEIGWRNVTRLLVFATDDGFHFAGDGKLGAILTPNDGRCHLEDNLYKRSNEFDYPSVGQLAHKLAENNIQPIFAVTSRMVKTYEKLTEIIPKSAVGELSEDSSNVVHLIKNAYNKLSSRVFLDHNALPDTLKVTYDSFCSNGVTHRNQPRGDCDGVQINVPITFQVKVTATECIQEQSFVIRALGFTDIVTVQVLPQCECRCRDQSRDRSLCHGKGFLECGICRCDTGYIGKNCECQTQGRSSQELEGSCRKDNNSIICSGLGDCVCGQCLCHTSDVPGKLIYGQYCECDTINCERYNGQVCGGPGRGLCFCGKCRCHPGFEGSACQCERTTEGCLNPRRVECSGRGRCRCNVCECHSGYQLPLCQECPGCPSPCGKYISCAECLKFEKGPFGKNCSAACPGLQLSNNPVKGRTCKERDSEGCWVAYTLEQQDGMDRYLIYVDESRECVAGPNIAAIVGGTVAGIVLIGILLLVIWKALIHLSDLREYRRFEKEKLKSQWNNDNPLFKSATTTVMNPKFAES

Row | SMILES | pKd [1, 5] | pIC50 [2] | Cellular Toxicity Assay MTT LD50 (SKW3 cells) [µM] | pIC50 [3, 6] | Assay to Detect SKW3 Cells Binding to FIBRONECTIN IC50 [4, 7] | pKd [1] | pIC50 ([3]; SKW3) | Assay to Detect SKW3 Cells Binding to FIBRONECTIN IC50 [4, 8] | pIC50 [4]
1 | C[C@@]1(Cc2ccc(Br)cc2)C(=O)N(c2cc(Cl)cc(Cl)c2)C(=O)N1Cc1ccccn1 [Example 110] | 6.82 | 5.05 | 200 to 400 | 4.60 | No inh^c | – | – | – | –
2 | CC(=O)N1C(=O)N(c2cc(Cl)cc(Cl)c2)C(=O)[C@@]1(C)Cc1ccc([N+](=O)[O-])cc1 [Example 135] | 6.70 | 5.77 | >400 | 4.60 | No inh^c | – | – | – | –
3 | CCN1C(=O)N(c2cc(Cl)cc(Cl)c2)C(=O)[C@@]1(C)Cc1ccc(Br)cc1 [Example 97] | 7.64 | 5.70 | >350 | 5.00 to 5.30 | No inh^c | – | – | – | –
4 | CN1C(=O)N(c2cc(Cl)cc(Cl)c2)C(=O)C1(CCO)Cc1ccc(Br)cc1 (stereo not shown) [Example 244] | – | 5.66 | 200 to 400 | – | – | 5.40 | 5.10 to 5.40 | No inh^c | –
5 | C[C@@]1(Cc2ccc(Br)cc2)C(=O)N(c2cc(Cl)cc(Cl)c2)C(=O)N1CCCCC#N [Example 256] | – | 6.40 | 150 to 300 | – | – | 6.92 | 5.70 to 6.10 | No inh^c | –
6 | CN1C(=S)N(c2cc(Cl)cc(Cl)c2)C(=O)C1(C)Cc1ccc(Br)cc1 (stereo not shown) [Example 80] | 6.72 | 5.49 | >400 | 5.30 | No inh^c | – | – | – | –
7 | C[C@@]1(Cc2ccc(Br)cc2)C(=O)N(c2cc(Cl)cc(Cl)c2)C(=O)N1Cc1cccnc1 [Example 111] | 6.72 | 4.12 | 36 | 5.52 | No inh^c | – | – | – | –
8 | CCCN1C(=O)N(c2cc(Cl)cc(Cl)c2)C(=O)C1(C)Cc1ccc(Br)cc1 (stereo not shown) [Example 137] | 7.40 | 6.40 | 200 to 400 | 5.52 to 6.00 | No inh^c | – | – | – | –
9 | CN1C(=O)N(c2cc(Cl)cc(Cl)c2)C(=O)C1(C)Cc1cc(Br)cc(Br)c1 (stereo not shown) [Example 164] | 6.55 | 4.60 | 100 to 200 | < 4.00 | No inh^c | – | – | – | –
10 | C[C@]1(Cc2ccc([N+](=O)[O-])cc2)NC(=O)N(c2cc(Cl)cc(Cl)c2)C1=O [Example 44] | 6.38 | 6.52 | 63 to 125 | 4.92 to 5.22 | No inh^c | – | – | – | –
11 | CCC1(Cc2ccc(Br)cc2)C(=O)N(c2cc(Cl)cc(Cl)c2)C(=O)N1C (stereo not shown) [Example 172] | 6.77 | 6.15 | 165 | 5.74 | No inh^c | – | – | – | –
12 | C[C@@]1(Cc2ccc(Br)cc2)C(=O)N(c2cc(Cl)cc(Cl)c2)C(=O)N1CCCCn1ccnc1 [Example 252] | – | 6.52 | 17 to 20 | – | – | 6.96 | 6.10 to 6.40 | No inh^c | –
13 | C[C@@]1(Cc2ccc(Br)cc2)C(=O)N(c2cc(Cl)cc(Cl)c2)C(=O)N1CCCCS(=O)(=O)O [Example 250] | – | 7.00 | 100 to 200 | – | – | 7.40 | > 6.00 | No inh^c | –
14 | CN1C(=O)N(c2cc(Cl)cc(Cl)c2)C(=O)[C@@]1(C)Cc1cc(Br)cc(Br)c1 [Example 118] | 6.34 | 5.47 | 200 to 400 | < 4.00 | – | – | – | – | < 4.00
15 | CC(=O)CN1C(=O)N(c2cc(Cl)cc(Cl)c2)C(=O)[C@@]1(C)Cc1ccc(Br)cc1 [Example 117] | 5.96 | 5.66 | 12 | 4.92 | – | – | – | – | 4.92
16 | CCCC1(Cc2ccc(Br)cc2)C(=O)N(c2cc(Cl)cc(Cl)c2)C(=O)N1C (stereo not shown) [Example 173] | 6.77 | 5.66 | 200 to 400 | 5.32 | No inh^c | – | – | – | –
17 | C[C@@]1(Cc2ccc(Br)cc2)C(=O)N(c2cc(Cl)cc(Cl)c2)C(=O)N1CCCS(=O)(=O)O [Example 249] | – | 6.40 | 200 to 400 | – | – | 6.80 | > 6.00 | No inh^c | –
18 | C[C@@]1(Cc2ccc(Br)cc2)C(=O)N(c2cc(Cl)cc(Cl)c2)C(=O)N1CCCP(=O)(O)O [Example 223] | – | 6.70 | 200 to 400 | – | – | 6.82 | 5.40 to 5.70 | No inh^c | –
19 | Cc1cc(Br)cc(C)c1C[C@]1(C)C(=O)N(c2cc(Cl)cc(Cl)c2)C(=O)N1C [Example 122] | 6.89 | 5.74 | 200 to 400 | 4.60 to 4.92 | No inh^c | – | – | – | –
20 | O=C1N[C@H](Cc2ccccc2)C(=O)N1c1cc(Cl)cc(Cl)c1 [Example 15] | 5.64 | 4.30 to 4.60 | 125 to 250 | 4.20 to 4.51 | No Inh^c | – | – | – | –
21 | CCC1(Cc2ccccc2)C(=O)N(c2cc(Cl)cc(Cl)c2)C(=O)N1C (stereo not shown) [Example 93] | 5.90 | 4.89 | 100 to 200 | < 4.00 | No inh^c | – | – | – | –
22 | C[C@@]1(Cc2ccc(Br)cc2)C(=O)N(c2cc(Cl)cc(Cl)c2)C(=O)N1CCCNC(=N)N [Example 262] | – | 6.40 | 25 to 75 | – | – | 7.10 | 5.70 to 6.00 | No inh^c | –
23 | C[C@@]1(Cc2ccc(Br)cc2)C(=O)N(c2cc(Cl)cc(Cl)c2)C(=O)N1Cc1ccc(C(=O)O)cc1 [Example 228] | – | 5.80 | 50 to 100 | – | – | 6.39 | 4.60 to 4.92 | No inh^c | –

Source: patent USRE38132E1, “Phenylpyrrolidines, phenylimidazolidines,3-phenyl-1,3-oxizolidines and 3-phenyl-1,3-thiazolidines and their use in the treatment of inflammatory disease” (Boehringer Ingelheim Pharmaceuticals, Inc., priority 1997, dated 2003)
